Results as given in patent publication US5204462A, “4H-3,1-benzoxazin-4-one derivative” (Japan Tobacco, Inc., priority 1990, dated 1993).
pIC50: −log10 of the molar value.

Columns and labels:
Format in all cases: biochemical
[1] = molecular target: T1, human leukocyte elastase (HLE) (Homo sapiens, UniProt P08246); assay: Test 1: Measurement of inhibitory activity against HLE; settings: MeO-Suc-Ala-Ala-Pro-Val-pNA substrate, pH 8.6, 37° C., 10 min after mixing enzyme and inhibitor, steady state rate
T1 construct: HLE was purified according to the method described by A. J. Barrett; from tissue; host or cells: purified from natural human material by Barrett's method (Methods in Enzymology 80, 581-588, 1981)
T1 sequence (P08246 30-247 limits assumed): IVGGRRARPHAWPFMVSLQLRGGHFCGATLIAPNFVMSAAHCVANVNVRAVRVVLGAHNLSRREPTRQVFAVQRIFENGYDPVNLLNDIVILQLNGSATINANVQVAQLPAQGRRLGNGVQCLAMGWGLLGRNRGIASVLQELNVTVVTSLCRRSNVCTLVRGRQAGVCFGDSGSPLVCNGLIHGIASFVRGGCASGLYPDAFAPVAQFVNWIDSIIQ
Procedure: (§1) In order to investigate the serine protease inhibiting activity of the 4H-3,1-benzoxazin-4-one derivatives according to the present invention, human leukocyte elastase (HLE), bovine α-chymotrypsin (CYT), and human cathepsin G (HCG) were used in accordance with the following methods.
(§2) Note that the 4H-3,1-benzoxazin-4-one derivative of the present invention was dissolved in dimethylsulfoxide (DMSO) to adjust to the concentration to 1 mg/ml. This solution was serially diluted with DMSO, and twice the volume of measurement buffer was added to these DMSO solutions to provide the inhibitor solution. Test 1: Measurement of inhibitory activity against HLE
0.2M tris-hydrochloride buffer (pH=8.6)
HLE was purified according to the method described by A. J. Barrett ("Methods in Enzymology", Vol. 80, pp. 581 to 588, 1981) and adjusted to a concentration of 190 nM with measurement buffer. This solution was used as the enzyme solution.
Methoxysuccinyl-L-alanyl-L-alanyl-L-prolyl-L-valyl-paranitroanilide (Funakoshi Co. Ltd., Tokyo, Japan) as enzyme substrate was dissolved and adjusted to a concentration of 5 mM with DMSO. This DMSO solution was diluted with twice the volume of measurement buffer, and then used as the substrate solution.
(§3) The enzyme solution, the substrate solution, and the inhibitor solution were pre-incubated at 37° C. for 10 minutes. The enzyme solution (140 μl) and the inhibitor solution (30 μl) were mixed in a well of a 96-well microtiter plate (Nunc Co. Ltd., Roskilde, Denmark), and the substrate solutions (30 μl) were added 10 minutes after the mixing, thereby starting the enzyme reaction. Hydrolysis of the substrate was monitored by the measurement of absorbance at 405 nm using a micro plate photometer (Corona Co. Ltd, Tokyo, Japan). The inhibitor concentration at which the activity of HLE was inhibited by 50% (IC50) was calculated from the substrate hydrolysis rate in the steady state.

[2] = molecular target: T2, bovine α-chymotrypsin (CYT) (Bos taurus, UniProt P00766); assay: Test 2: Measurement of inhibitory activity against CYT; settings: MeO-Suc-Ala-Ala-Pro-Phe-pNA substrate, pH 8.0, same procedures as Test 1
T2 construct: purchased Sigma Co. Ltd., St. Louise, MO
Procedure: as §1, §2, §3
Test 2: Measurement of inhibitory activity against CYT.
0.2M tris-hydrochloride buffer (pH=8.0)
CYT (Sigma Co. Ltd., St. Louise, MO) was adjusted to a concentration of 190 nM with the measurement buffer. This solution was used as the enzyme solution.
Methoxysuccinyl-L-alanyl-L-alanyl-L-prolyl-L-phenylalanyl-paranitroanilide (Funakoshi) as the enzyme substrate was dissolved and adjusted to a concentration of 5 mM with DMSO. This DMSO solution was diluted with twice the volume of measurement buffer, and then used as the substrate solution.
IC50 against CYT was determined in the same procedures detailed in Test 1.

human cathepsin G (HCG) = molecular target: T3, human cathepsin G (HCG) (Homo sapiens, UniProt P08311); assay: Test 3: Measurement of inhibitory activity against HCG; settings: MeO-Suc-Ala-Ala-Pro-Phe-pNA substrate, pH 7.5, same procedure as Test 1
T3 construct: purchased Cosmo Bio Co. Ltd., Tokyo, Japan
T3 sequence (P08311 21-244 limits assumed): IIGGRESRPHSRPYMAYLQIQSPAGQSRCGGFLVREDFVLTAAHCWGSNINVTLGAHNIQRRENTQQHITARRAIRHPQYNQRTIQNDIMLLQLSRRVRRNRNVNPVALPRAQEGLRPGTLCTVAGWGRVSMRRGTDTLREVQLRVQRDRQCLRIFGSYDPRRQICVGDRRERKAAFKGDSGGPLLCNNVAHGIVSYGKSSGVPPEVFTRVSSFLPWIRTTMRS
Procedure: as §1, §2, §3
Test 3: Measurement of inhibitory activity against HCG.
0.2M tris-hydrochloride buffer (pH=7.5)
HCG (Cosmo Bio Co. Ltd., Tokyo, Japan) was adjusted to a concentration of 190 nM with the measurement buffer. This solution was used as the enzyme solution.
Methoxysuccinyl-L-alanyl-L-alanyl-L-prolyl-L-phenylalanyl-paranitroanilide (Funakoshi) as the enzyme substrate was dissolved and adjusted to a concentration of […] with DMSO. This DMSO solution was diluted with twice the volume of the measurement buffer, and then used as the substrate solution.
IC50 against HCG was determined in the same procedure detailed in Test 1.

Cc1cccc2nc([C@@H](NC(=O)[C@@H]3CCCN3C(=O)OC(C)(C)C)C(C)C)oc(=O)c12 [Example 2, (1'S)-2-[1'-(N-tert-butyloxycarbonyl-L-prolyl)amino-2'-methyl]propyl-5-methyl-4H-3,1-benzoxazin-4-one]
pIC50 [1]: 5.57
pIC50 [2]: 4.74
pIC50 (human cathepsin G (HCG)): 4.58

CCCCCC(=O)N1CCC[C@H]1C(=O)N[C@H](c1nc2cccc(C)c2c(=O)o1)C(C)C [Example 5, (1'S)-2-[1'-(N-hexanoyl-L-prolyl)amino-2'-methyl]propyl-5-methyl-4H-3,1-benzoxazin-4-one]
pIC50 [1]: 5.91
pIC50 [2]: 4.95
pIC50 (human cathepsin G (HCG)): < 3.85

Cc1cccc2nc([C@@H](NC(=O)[C@@H]3C[C@@H](O)CN3C(=O)OCc3ccccc3)C(C)C)oc(=O)c12 [Example 12, (1'S)-2-[1'-(N-benzyloxycarbonyl-trans-4-hydroxy-L-prolyl)amino-2'-methyl]propyl-5-methyl-4H-3,1-benzoxazin-4-one]
pIC50 [1]: 5.94
pIC50 [2]: 4.97
pIC50 (human cathepsin G (HCG)): < 3.70

Cc1cccc2nc([C@@H](NC(=O)[C@@H]3CCCN3C(=O)OCc3ccccc3)C(C)C)oc(=O)c12 [Example 1, (1'S)-2-[1'-(N-benzyloxycarbonyl-L-prolyl)amino-2'-methyl]propyl-5-methyl-4H-3,1-benzoxazin-4-one]
pIC50 [1]: 6.55
pIC50 [2]: 5.54
pIC50 (human cathepsin G (HCG)): < 4.30

COC(=O)CCC(=O)N[C@@H](C)C(=O)N[C@@H](C)C(=O)N1CCC[C@H]1C(=O)N[C@H](c1nc2cccc(C)c2c(=O)o1)C(C)C [Example 6, (1'S)-2-[1'-(methoxysuccinyl-L-alanyl-L-alanyl-L-prolyl)amino-2'-methyl]propyl-5-methyl-4H-3,1-benzoxazin-4-one]
pIC50 [1]: 5.53
pIC50 [2]: 4.66
pIC50 (human cathepsin G (HCG)): 4.82

Cc1cccc2nc([C@@H](NC(=O)[C@@H]3CCCN3C(=O)/C=C/c3ccccc3)C(C)C)oc(=O)c12 [Example 3, (1'S)-2-[1'-(N-cinnamoyl-L-prolyl)amino-2'-methyl]propyl-5-methyl-4H-3,1-benzoxazin-4-one]
pIC50 [1]: 5.88
pIC50 [2]: 4.81
pIC50 (human cathepsin G (HCG)): < 3.70

CSCC[C@H](NC(=O)[C@@H]1CCCN1C(=O)OCc1ccccc1)c1nc2cccc(C)c2c(=O)o1 [Example 10, (1'S)-2-[1'-(N-benzyloxycarbonyl-L-prolyl)amino-3'-(methylthio)]propyl-5-methyl-4H-3,1-benzoxazin-4-one]
pIC50 [1]: 6.00
pIC50 [2]: 5.35
pIC50 (human cathepsin G (HCG)): < 4.30

Cc1cccc2nc([C@@H](NC(=O)[C@@H]3CCCN3C(=O)CCc3ccccc3)C(C)C)oc(=O)c12 [Example 4, (1'S)-5-methyl-2-{2'-methyl-1'-[N-(3-phenylpropionyl)-L-prolyl]amino}propyl-4H-3,1-benzoxazin-4-one]
pIC50 [1]: 6.28
pIC50 [2]: 5.06
pIC50 (human cathepsin G (HCG)): < 3.70
